In brackets after ≈: the same amount, converted by molar mass.
Columns and labels:
Assay type in all cases: cell-based
[1] = system: Klebsiella pneumonia culture; assay: Optical third-derivative MIC method, culture in broth; conditions: for MIC: Klebsiella pneumoniae
From the text: The method of FIG. 1 starts at a time equal to zero, t0 (1). Preferably, said t0 is the moment a pure bacteria culture is finished being prepared. Alternatively, said t0 is the moment all wells contain both said bacteria culture and said antimicrobial drug. After the starting of the experiment each well is periodically illuminated with a light source and the intensity of the transmitted light is detected with a photodetector (2). Preferably, each well is illuminated and the intensity of the transmitted light is detected every hour (2). More preferably, each well is illuminated and the intensity of the transmitted light is detected every 5 to 15 min. After a predetermined time length, preferably after 4 hours, a first, a second and a third derivative of said measured intensity is calculated (3) in a first and a second time frame for each well. Preferably, said second time frame is the last measured time frame after the test has been running for said predetermined time length, and said first time frame is the time frame preceding the second time frame. More preferably, said first time frame is between two and three hours and said second time frame is between three and four hours. After the calculation of said derivatives, said first derivative in said second time frame of said reference well is compared to a growth speed threshold value (4). Preferably, said growth speed threshold value is 0.166 (4). If said first derivative in said second time frame of said reference well is larger than or equal to said growth speed threshold value said bacteria culture is classified as Type I (4). If said first derivative in said second time frame of said reference well is smaller than said growth speed threshold value said bacteria culture is classified as Type II (4). Subsequently, independent of the classification of the bacteria culture according to the two types, the method comprises the following steps which are performed for each well or for all wells except said reference well. Both said first and said second time frames are evaluated to see if there is an inflection point present in the second derivative in said first and/or said second time frame (5).
If said first and/or said second time frame comprise said inflection point than said third derivative in said first time frame is compared to said third derivative in said second time frame (6). If said third derivative in said first time frame is larger than said third derivative in said second time frame, then said first time frame and said second time frame are selected as a first and second time frame to be used in a minimal inhibitory concentration determination method (10). If said third derivative in said first time frame is not larger than said third derivative in said second time frame, then said well is illuminated again after a certain time period, preferably an hour, more preferably 5 to 15 min after said predetermined time length said, with a light source and the intensity of the transmitted light is detected with a photodetector forming a new time frame subsequent to said second time frame (7). A third derivative, and possibly also a first and/or a second derivative, is calculated in said new time frame (7). Further, in step (7) a new first time frame is put equal to said second time frame and a new second time frame to equal to said new time frame. Subsequently, said third derivative in said new first time frame is compared to said third derivative in said new second time frame (8). If said derivative in said new first time frame is larger than said third derivative in said new second time frame, then said new first time frame and said new second time frame are selected as a first and second time frame to be used in a minimal inhibitory concentration determination method (10). […]

[2] = system: Acinetobacter Species; assay: E-test; conditions: culture AC/2990
[3] = system: Acinetobacter Species; assay: Broth microdilution (BMD); conditions: culture AC/2990
[4] = system: Klebsiella pneumonia culture; assay: E-test; conditions: Klebsiella pneumoniae
[5] = system: Klebsiella pneumonia culture; assay: Broth microdilution (BMD); conditions: Klebsiella pneumoniae

- MIC ([1]; 4 h, KP/38.3002, FIG. 5C, Table 5, 4 h-5 h, read-out: MIC (60%) T2): 8 µg/mL (≈ 26.7 µM)
- MIC ([1]; 4 h, KP/38.3002, FIG. 5C, Table 5, 4 h-5 h, read-out: MIC (75%) T2): 8 µg/mL (≈ 26.7 µM)
- MIC ([1]; 4 h, KP/153.4346, 4 h-5 h, read-out: MIC (25%) T2): > 256 µg/mL
- MIC ([1]; 4 h, KP/153.4346, 4 h-5 h, read-out: MIC (40%) T2): > 256 µg/mL
- MIC ([1]; 4 h, KP/153.4346, 4 h-5 h, read-out: MIC (60%) T2): 16 µg/mL (≈ 53.4 µM)
- MIC ([1]; 4 h, KP/153.4346, 4 h-5 h, read-out: MIC (75%) T2): 16 µg/mL (≈ 53.4 µM)
- MIC ([1]; 4 h, MP/072.3489, 4 h-5 h, read-out: MIC (25%) T2): 16 µg/mL (≈ 53.4 µM)
- MIC ([1]; 4 h, MP/072.3489, 4 h-5 h, read-out: MIC (40%) T2): 8 µg/mL (≈ 26.7 µM)
- MIC ([1]; 4 h, MP/072.3489, 4 h-5 h, read-out: MIC (60%) T2): 8 µg/mL (≈ 26.7 µM)
- MIC ([1]; 4 h, MP/072.3489, 4 h-5 h, read-out: MIC (75%) T2): 8 µg/mL (≈ 26.7 µM)
- MIC ([1]; 5 h, KP/38.3002, FIG. 5H, both repetitions, read-out: MIC value determined by the method): 16 µg/mL (≈ 53.4 µM)
- MIC ([1]; KP/38.3002, FIG. 5C, overall conclusion, read-out: MIC value determined by the method): 16 µg/mL (≈ 53.4 µM)
- MIC ([1]; KP/38.3002, FIG. 5H repetition, Table 10, 3 h-4 h, read-out: MIC (25%) T1): 0.5 µg/mL (≈ 1.67 µM)
- MIC ([1]; KP/38.3002, FIG. 5H repetition, Table 10, 3 h-4 h, read-out: MIC (40%) T1): 0.5 µg/mL (≈ 1.67 µM)
- MIC ([1]; KP/38.3002, FIG. 5H repetition, Table 10, 3 h-4 h, read-out: MIC (60%) T1): 0.5 µg/mL (≈ 1.67 µM)
- MIC ([1]; KP/38.3002, FIG. 5H repetition, Table 10, 3 h-4 h, read-out: MIC (75%) T1): 0.5 µg/mL (≈ 1.67 µM)
- MIC ([1]; KP/38.3002, FIG. 5H repetition, Table 10, 4 h-5 h, read-out: MIC (25%) T2): 16 µg/mL (≈ 53.4 µM)
- MIC ([1]; KP/38.3002, FIG. 5H repetition, Table 10, 4 h-5 h, read-out: MIC (40%) T2): 16 µg/mL (≈ 53.4 µM)
- MIC ([1]; KP/38.3002, FIG. 5H repetition, Table 10, 4 h-5 h, read-out: MIC (60%) T2): 16 µg/mL (≈ 53.4 µM)
- MIC ([1]; KP/38.3002, FIG. 5H repetition, Table 10, 4 h-5 h, read-out: MIC (75%) T2): 8 µg/mL (≈ 26.7 µM)
- MIC ([1]; KP/38.3002, FIG. 5H repetition, Table 11, 3 h-4 h, read-out: MIC (25%) T1): 16 µg/mL (≈ 53.4 µM)
- MIC ([1]; KP/38.3002, FIG. 5H repetition, Table 11, 3 h-4 h, read-out: MIC (40%) T1): 0.25 µg/mL (≈ 0.835 µM)
- MIC ([1]; KP/38.3002, FIG. 5H repetition, Table 11, 3 h-4 h, read-out: MIC (60%) T1): 0.25 µg/mL (≈ 0.835 µM)
- MIC ([1]; KP/38.3002, FIG. 5H repetition, Table 11, 3 h-4 h, read-out: MIC (75%) T1): 0.25 µg/mL (≈ 0.835 µM)
- MIC ([1]; KP/38.3002, FIG. 5H repetition, Table 11, 4 h-5 h, read-out: MIC (25%) T2): 16 µg/mL (≈ 53.4 µM)
- MIC ([1]; KP/38.3002, FIG. 5H repetition, Table 11, 4 h-5 h, read-out: MIC (40%) T2): 8 µg/mL (≈ 26.7 µM)
- MIC ([1]; KP/38.3002, FIG. 5H repetition, Table 11, 4 h-5 h, read-out: MIC (60%) T2): 8 µg/mL (≈ 26.7 µM)
- MIC ([1]; KP/38.3002, FIG. 5H repetition, Table 11, 4 h-5 h, read-out: MIC (75%) T2): 8 µg/mL (≈ 26.7 µM)
- MIC ([1]; KP/153.4346, FIG. 5G, overall conclusion, read-out: MIC value determined by the method): > 256 µg/mL
- MIC ([1]; MP/072.3489, FIG. 5B, overall conclusion, read-out: MIC value determined by the method): 16 µg/mL (≈ 53.4 µM)
- MIC [2]: 0.25 µg/mL (≈ 0.835 µM)
- MIC [3]: 0.25 µg/mL (≈ 0.835 µM)
- MIC ([4]; culture KP/38.3002): 16 µg/mL (≈ 53.4 µM)
- MIC ([4]; culture KP/153.4346): > 32 µg/mL
- MIC ([4]; culture MP/072.3489): 16 µg/mL (≈ 53.4 µM)
- MIC ([5]; culture KP/38.3002): 16 µg/mL (≈ 53.4 µM)
- MIC ([5]; culture KP/153.4346): 16 µg/mL (≈ 53.4 µM)
- MIC ([5]; culture MP/072.3489): 32 µg/mL (≈ 107 µM)
Structure (SMILES): C[C@@H](O)[C@H]1C(=O)N2C(C(=O)O)=C(SCCN=CN)C[C@H]12 [imipenem]
- HR? at MIC (25%) ([1]; MP/072.3489, ratio MIC T2/T1): yes (If the ratio of the MIC value in the second time frame over the MIC value in the first time frame is higher than or equal to 8 then the ratio is labelled to be heteroresistant)
- HR? at MIC (40%) ([1]; MP/072.3489, ratio MIC T2/T1): yes (If the ratio of the MIC value in the second time frame over the MIC value in the first time frame is higher than or equal to 8 then the ratio is labelled to be heteroresistant)
- HR? at MIC (60%) ([1]; MP/072.3489, ratio MIC T2/T1): yes (If the ratio of the MIC value in the second time frame over the MIC value in the first time frame is higher than or equal to 8 then the ratio is labelled to be heteroresistant)
- HR? at MIC (75%) ([1]; MP/072.3489, ratio MIC T2/T1): yes (If the ratio of the MIC value in the second time frame over the MIC value in the first time frame is higher than or equal to 8 then the ratio is labelled to be heteroresistant)

Reference: patent publication US20220389477A1, “METHOD FOR EVALUATING ANTIBIOTIC SUSCEPTIBILITY” (Vrije Universiteit Brussel, priority 2019, published 2022)
